Source: the METLIN SMRT retention time set (Domingo-Almenara et al. 2019)

Assay: gradient 5% acetonitrile 3 min, to 50% in 2 min, to 85% in 15 min, held 3 min, 100 µL/min
Conditions: column: Zorbax Extend-C18 2.1 x 50 mm; eluents: water / acetonitrile, 0.1% formic acid
Summary of the method: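 Standards, all pure, were combined into mixtures of ~100 molecules and run at 100 μL/min on a Zorbax Extend-C18 column (2.1 × 50 mm, 1.8 μm) with water and acetonitrile, each containing 0.1% formic acid. A coupled quadrupole time-of-flight mass spectrometer operated in positive and negative ionization mode. Retention time values come from computationally picked adduct peaks, each inspected manually.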
CCN1CCN(CC2CCN(S(=O)(=O)c3ccc4c(c3)CCC4)CC2)CC1 gave an RP-LC retention time of 624 s.
CC(=O)c1cccc(NC(=O)c2ccc(Cl)s2)c1 gave an RP-LC retention time of 832 s.
For Cc1cccc(NC(=O)CN2C(=O)CC(C)S(=O)(=O)c3ccccc32)c1 (stereo unspecified), the RP-LC retention time was 768 s.
CCOC(=O)c1ccc(NC(=O)NCC(c2cccnc2)c2c[nH]c3ccccc23)cc1 (stereo unspecified) showed an RP-LC retention time of 814 s.
In the case of CN1Cc2ccccc2-n2ccnc2C12CCN(C(=O)c1cc(F)cc(F)c1)CC2, the RP-LC retention time is reported as 618 s.
Work on Cc1nc(N2CCN(CCO)CC2)nc2c1C(=O)CC(C)(C)C2 yielded an RP-LC retention time of 604 s.
For Cc1cc(C)c(-c2noc(C)n2)c(NC(=O)c2ccccc2Cl)n1, the RP-LC retention time was 744 s.
With O=C(Nc1cccc(F)c1)N1CC2CCCN2c2ccccc21 (stereo unspecified) the RP-LC retention time was 1110 s.
COc1ccc(Nc2nc(-c3ccc(OC)cc3)c(CCC(=O)O)s2)cc1 gave an RP-LC retention time of 756 s.
Work on CCOC(=O)c1nc(N2CCOCC2)c2ccccc2n1 yielded an RP-LC retention time of 626 s.
Work on CN(C)c1ccc(-c2nc3cnccn3c2Nc2cccc(C(F)(F)F)c2)cc1 yielded an RP-LC retention time of 887 s.
For Cc1cc(-c2nnc(-c3ccco3)o2)c(C)n1CC(=O)NCc1cccc(Cl)c1, the RP-LC retention time was 886 s.
CC(C)C(=O)Nc1ccc(-n2cnc(C(=O)NC3CCCCC3)c2)nc1 showed an RP-LC retention time of 765 s.
C=CCSc1nc2ccccc2c2nc(-c3ccncc3)nn12 showed an RP-LC retention time of 1150 s.
O=C(CC(SCCO)c1ccc([N+](=O)[O-])cc1)c1ccco1 (stereo unspecified) showed an RP-LC retention time of 715 s.
For Cc1ccc2nc(-c3ccc(Cl)cc3)c(Nc3ccc(Cl)cc3)n2c1, the RP-LC retention time was 831 s.
For COc1ccc(C)cc1NC(=O)NCCn1c(C(F)(F)F)nc2cccnc21, the RP-LC retention time was 807 s.
Work on O=c1cc(N2CCOCC2)c(-c2ccccc2)n[nH]1 yielded an RP-LC retention time of 623 s.
With COCCN1C(=O)Cc2ccccc2C1C(=O)NCc1ccc(C)o1 (stereo unspecified) the RP-LC retention time was 637 s.
COc1cccc(NC(=O)Cn2nc(C(=O)N3CCCC3)c3ccccc32)c1 showed an RP-LC retention time of 792 s.
Compound CCn1ccnc1N1CCN(CC(=O)Nc2cc(Cl)ccc2OC)CC1 has an RP-LC retention time of 552 s.
CCS(=O)(=O)N1CC(=O)N(c2ccc(Cl)cc2)C(C)(C(=O)NCc2ccc(F)cc2)C1 (stereo unspecified) gave an RP-LC retention time of 840 s.
CCN1c2ccc(C)cc2C(=O)NC12CCN(C(=O)c1cc(C)cc(C)c1)CC2 showed an RP-LC retention time of 912 s.
CN1CCC(NC(=O)c2cccc3c2CCN3C(=O)c2ccc(F)cc2)CC1 showed an RP-LC retention time of 602 s.
With Cc1nc(-c2noc(-c3ccccc3)n2)cn1CC(=O)N1CCN(c2ccccc2F)CC1 the RP-LC retention time was 894 s.
With O=C1CCCc2c1cc(C(=O)NCCc1ccco1)c(=O)n2-c1ccc(F)cc1 the RP-LC retention time was 834 s.
Work on COc1ccc(C2CC(=O)N(c3ccc(Cl)cc3)C(=O)C2)cc1 yielded an RP-LC retention time of 942 s.
Cc1ccnc(NC(c2ccccc2)c2ccc3cccnc3c2O)c1 (stereo unspecified) showed an RP-LC retention time of 752 s.
With O=c1cc(-c2ccc(Cl)cc2)[nH]c2ccccc12 the RP-LC retention time was 869 s.
For CCCn1cnc2ccc(-c3noc(CNC(=O)c4cccs4)n3)cc21, the RP-LC retention time was 652 s.
In the case of Cc1nc(-c2cnccn2)nc2c1CCC(=O)N2Cc1ccncc1, the RP-LC retention time is reported as 510 s.
O=C(C1CCCCC1)N1CC(c2nc(-c3ccccc3)no2)C2(CCOCC2)C1 (stereo unspecified) showed an RP-LC retention time of 963 s.
With Cc1ccc(C)c(N2CCN(Cc3nc(-c4ccc(N5CCCC5)nc4)no3)CC2)c1 the RP-LC retention time was 784 s.
Work on Cc1noc(Cc2nnc(-c3cccc(F)c3)o2)n1 yielded an RP-LC retention time of 730 s.
Compound COc1ccc(CN2CC3(CCN(S(=O)(=O)c4c(C)noc4C)CC3)C2=O)cc1 has an RP-LC retention time of 842 s.
CCOC(=O)Cc1csc(NC(=O)C2CC(=O)N(c3n[nH]c4ccccc34)C2)n1 (stereo unspecified) showed an RP-LC retention time of 689 s.
In the case of O=C(NCCCN1CCCC1)c1cccc(N2CCNC(c3ccccc3)C2)n1 (stereo unspecified), the RP-LC retention time is reported as 694 s.
For COc1ccccc1CNC(=O)CN1CCN(Cc2ccc(F)cc2)C1=O, the RP-LC retention time was 778 s.
With CCCN1CCN(C(=O)c2sc3ncn(CC(=O)N4CCCCC4C)c(=O)c3c2C)CC1 (stereo unspecified) the RP-LC retention time was 596 s.
With CSc1ccc(NC(=O)c2c(C)oc3ccn(Cc4ccc(F)cc4)c(=O)c23)cc1 the RP-LC retention time was 1270 s.
For Cc1ccc(/C=C2\CNC/C(=C\c3ccc(C)cc3)C2=O)cc1, the RP-LC retention time was 734 s.
Compound CSc1ccc(CNC(=O)C2CCCN(c3ncc(-c4ccccc4)cn3)C2)cc1 (stereo unspecified) has an RP-LC retention time of 1060 s.
Compound C=CCNC(=O)c1cn(-c2ccc(-c3nc(C(C)(C)C)no3)cn2)cn1 has an RP-LC retention time of 883 s.
Cc1cccc(NC(=O)CN2CCc3[nH]c4c(C)c(C)ccc4c(=O)c3C2)c1 showed an RP-LC retention time of 626 s.
Compound Cc1nc(Nc2nccc(-c3ccccc3)n2)nc2ccccc12 has an RP-LC retention time of 677 s.
For Cc1ccc(Cn2nc(C(=O)N3CCCc4cc(C)ccc43)ccc2=O)cc1, the RP-LC retention time was 946 s.
COc1cc(Br)c(CC2C(=O)Nc3ccccc32)cc1OC (stereo unspecified) gave an RP-LC retention time of 842 s.
For O=C(CCCc1ccccc1)N1CCCC1c1nc(-c2ccccc2Cl)no1 (stereo unspecified), the RP-LC retention time was 1140 s.
Work on CC(NC(=O)c1cc(-c2ccc(F)cc2)cn1C)c1cccnc1 (stereo unspecified) yielded an RP-LC retention time of 680 s.
Cc1cccc2nnc(N3CCN(C(=O)c4ccc(C(F)(F)F)s4)CC3)n12 showed an RP-LC retention time of 751 s.
For COc1ccc2c(c1)CCc1sc(NC(=O)c3cc(OC)c(OC)c(OC)c3)nc1-2, the RP-LC retention time was 1080 s.
Cc1ccc(C)c(NC(=O)N2CCC3(CC2)NC(=O)c2ccccc2N3C)c1 showed an RP-LC retention time of 763 s.
O=C(Nc1ccc2c(c1)OCCO2)C1CCN(C(=O)c2ccccc2F)CC1 gave an RP-LC retention time of 734 s.
With COCCNC(=O)c1nnn(Cc2ccc(Cl)cc2)c1-n1cccc1 the RP-LC retention time was 890 s.
Cc1ccc(CSc2nc(CC(=O)NCc3nnc(C)o3)cs2)cc1 showed an RP-LC retention time of 724 s.
Compound CCC(=O)N1CCN(c2ccc(=O)n(-c3ccc(C(C)C)cc3)n2)CC1 has an RP-LC retention time of 780 s.
With Cc1oc2ccn(Cc3ccc(F)cc3)c(=O)c2c1C(=O)NCc1ccco1 the RP-LC retention time was 975 s.
With O=C(Nc1ccc(-n2cnc(C(=O)N3CCSCC3)c2)nc1)C1CC1 the RP-LC retention time was 657 s.
COc1cccc(NC(=O)Nc2ccc(-c3cn4ccc(C)nc4n3)cc2)c1 showed an RP-LC retention time of 639 s.
Compound Cc1oc(-c2[nH]ncc2C(=O)N2CCOCC2)cc1S(=O)(=O)N1CCCC1 has an RP-LC retention time of 616 s.
With Cc1nn(C)c(=O)c2cc(S(=O)(=O)NCc3ccccc3Cl)cn12 the RP-LC retention time was 807 s.
Work on CC1(c2ccccc2)NN=C2Oc3ccccc3N21 (stereo unspecified) yielded an RP-LC retention time of 812 s.
In the case of O=C(COc1ccccc1)Nc1c(C(=O)N2CCN(c3ccccn3)CC2)oc2ccccc12, the RP-LC retention time is reported as 760 s.
Cc1cccc(NC(=O)C2CCN(S(=O)(=O)c3cc(C(=O)N4CCC(C)CC4)n(C)c3)CC2)n1 gave an RP-LC retention time of 722 s.
O=C(c1cccc(Br)c1)N1CCc2nc[nH]c2C1 showed an RP-LC retention time of 595 s.
Cc1cc(C2CCCN2C(=O)Cc2ccccc2Cl)no1 (stereo unspecified) showed an RP-LC retention time of 804 s.
For CC(C)C(=O)N1CCc2cc(CNC(=O)c3ccnn3C)ccc21, the RP-LC retention time was 708 s.
In the case of CCOc1ccc(-n2ccn3cc(-c4cccc(Cl)c4)nc3c2=O)cc1, the RP-LC retention time is reported as 947 s.
Work on Cc1cc(C(=O)N2CCC3(CCC3OCC(N)=O)CC2)c(C)o1 (stereo unspecified) yielded an RP-LC retention time of 681 s.
Compound CC1CCN(C(=O)CN2C(=O)CCCc3cc(S(=O)(=O)N4CCC(C)CC4)ccc32)CC1 has an RP-LC retention time of 987 s.
Compound CCC1Oc2ccc(C)cc2N(CC(=O)NCCN2CCc3ccccc3C2)C1=O (stereo unspecified) has an RP-LC retention time of 698 s.
Compound COc1ccccc1OCC(=O)Nc1ccc2c(c1)CN(C(=O)C1CC1)CC2 has an RP-LC retention time of 743 s.
In the case of N#Cc1ccc(C(=O)NC2CCN(c3ccc(F)cc3)C2=O)cc1 (stereo unspecified), the RP-LC retention time is reported as 754 s.
For COc1ccccc1-c1nc(-c2ccnc(N3CCOCC3)c2)no1, the RP-LC retention time was 812 s.
In the case of COc1cc(F)ccc1-c1ccnc2nc(Cc3ccc(F)cc3)nn12, the RP-LC retention time is reported as 905 s.
With Cc1cc(F)ccc1NC(=O)CN1C(=O)CCCc2cc(S(=O)(=O)N3CCCC3)ccc21 the RP-LC retention time was 817 s.
Work on COc1cc(CNC(=O)CN2C(=O)C(C)(C)c3cc(C)ccc32)cc(OC)c1OC yielded an RP-LC retention time of 794 s.
COc1ccccc1C(=O)N1C[C@H](c2nc(-c3cccnc3)no2)[C@@H](C)C1 gave an RP-LC retention time of 758 s.
With O=C(c1ccco1)N1CCCn2cc(-c3ccc4c(c3)OCO4)nc21 the RP-LC retention time was 661 s.
Work on Cc1cccc(NC(=O)Cn2nc3c(Oc4cccc(F)c4)nccn3c2=O)c1 yielded an RP-LC retention time of 864 s.
In the case of Cc1nnc(N2CCCC(C(=O)NCc3ccc4c(c3)OCO4)C2)c2nn(-c3ccccc3)c(C)c12 (stereo unspecified), the RP-LC retention time is reported as 698 s.
Compound COc1ccc(NC(=O)c2c(C)oc3nc(C)nc(N4CCOCC4)c23)cc1Cl has an RP-LC retention time of 788 s.
Work on CNC(=O)C1CN(C(=O)c2ccccc2Cl)CC12CCCC2 (stereo unspecified) yielded an RP-LC retention time of 665 s.
For O=C(NC1CC1)C1(c2ccc(F)cc2)CC1, the RP-LC retention time was 779 s.
In the case of CCOC(=O)N1CCC(Nc2c(N3CCN(c4ccccn4)CC3)c(=O)c2=O)CC1, the RP-LC retention time is reported as 572 s.
Compound O=C(NCc1ccccc1)c1cc(-c2ccc(F)cc2)ns1 has an RP-LC retention time of 1040 s.
Cc1cccn2c(=O)cc(CN(Cc3ccccc3)Cc3ccco3)nc12 gave an RP-LC retention time of 676 s.
O=C(c1cccc2[nH]ccc12)N1CCC2(CC1)N=C(c1cccc(Br)c1)NO2 showed an RP-LC retention time of 849 s.
With Cc1nc(-c2ccc(OC3CCN(C(=O)NCC(C)C)C3)cc2)no1 (stereo unspecified) the RP-LC retention time was 809 s.
In the case of O=C(CCS(=O)(=O)c1ccccc1)Nc1ccc(-c2ccn[nH]2)cc1, the RP-LC retention time is reported as 648 s.
For COc1cccc(C(=O)CC2(O)C(=O)Nc3ccc(C)cc32)c1 (stereo unspecified), the RP-LC retention time was 720 s.
